Legend:
hMC-4R [1] = biological target: T1, hMC-4R (Homo sapiens, UniProt P32245); assay: Membrane binding assay (fluorescence polarization, fluorescence labeled NDP-alpha-MSH competition); settings: HEK293 cell membrane preparations
T1 construct: expressed in transfected cells; host or cells: HEK293
Protocol: (§1) A membrane binding assay is used to identify competitive inhibitors of fluorescence labeled NDP-alpha-MSH binding to HEK293 cell membrane preparations expressing human melanocortin receptors.
(§2) The test compound or unlabeled NDP-alpha-MSH is dispensed at varying concentrations to a 384 well microtiter plate. Fluorescence labeled NDP-alpha-MSH is dispensed at a single concentration, followed by addition of membrane preparations. The plate is incubated for 5 h at room temperature.
(§3) The degree of fluorescence polarization is determined with a fluorescence polarization microplate reader.

hMC-5R = biological target: T2, hMC-5R (Homo sapiens, UniProt P33032); assay: as above; settings: HEK293 cell membrane preparations
T2 construct: expressed in transfected cells; host or cells: HEK293
T2 sequence (P33032 whole entry): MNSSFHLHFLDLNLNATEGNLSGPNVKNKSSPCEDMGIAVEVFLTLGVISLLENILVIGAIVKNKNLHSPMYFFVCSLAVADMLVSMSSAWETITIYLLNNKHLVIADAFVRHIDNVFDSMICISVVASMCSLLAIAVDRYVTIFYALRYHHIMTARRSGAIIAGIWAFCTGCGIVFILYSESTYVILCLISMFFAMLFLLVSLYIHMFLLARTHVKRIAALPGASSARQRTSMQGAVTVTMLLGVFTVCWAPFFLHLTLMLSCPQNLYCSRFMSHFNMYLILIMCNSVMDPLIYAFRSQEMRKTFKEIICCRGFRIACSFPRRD
Protocol: as §1, §2, §3

hMC-3R = biological target: T3, hMC-3R (Homo sapiens, UniProt P41968); assay: as above; settings: HEK293 cell membrane preparations
T3 construct: expressed in transfected cells; host or cells: HEK293
T3 sequence (P41968 whole entry): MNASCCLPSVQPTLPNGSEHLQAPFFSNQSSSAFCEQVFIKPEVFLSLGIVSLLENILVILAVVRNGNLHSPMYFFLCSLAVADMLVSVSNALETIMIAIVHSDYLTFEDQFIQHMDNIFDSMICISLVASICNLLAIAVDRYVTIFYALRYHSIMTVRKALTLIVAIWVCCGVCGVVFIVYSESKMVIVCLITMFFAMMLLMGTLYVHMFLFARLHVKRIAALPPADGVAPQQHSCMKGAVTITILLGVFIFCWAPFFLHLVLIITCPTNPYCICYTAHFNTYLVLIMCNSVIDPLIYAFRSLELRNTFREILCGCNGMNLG
Protocol: as §1, §2, §3

hMC-4R [2] = biological target: T1, hMC-4R; assay: Functional cellular cAMP assay (fluorescence polarization); assay type: cell-based; settings: for EC50: HEK293 cells, cAMP production; for % activation: cAMP production compared to stimulation with NDP-alpha-MSH; for fold improvement of functional activity: compared with WO030009850A1, Examples 1 and 34; for fold better functional activity: hMC4 EC50 compared with WO030009850A1, Example 166
Protocol: A functional cellular assay, based on competition between unlabeled cAMP and a fixed quantity of fluorescence labeled cAMP for a limited number of binding sites on a cAMP specific antibody, is used to discriminate melanocortin receptor agonists from antagonists by fluorescence polarization.
HEK293 cells expressing one of the human melanocortin receptors are transferred to 384 well microtiter plates, an appropriate amount of cAMP antibody is added, followed by the addition of different concentrations of the test compound to effect cAMP production. Cells are lysed and a fluorescence labeled cAMP conjugate is dispensed. The plate is read on a fluorescence polarization microplate reader and the amount of cAMP produced as a response to a test compound is compared to the production of cAMP resulting from stimulation with NDP-alpha-MSH.
To define antagonistic activity of a test compound, the compound is dispensed at different concentrations to cells stimulated by an appropriate amount of NDP-α-MSH. Inhibition of cAMP production is determined by comparing the inhibition of cAMP production of the test compound to the inhibition of cAMP production by a known inhibitor tested at the same concentrations.

T1 sequence (P32245 whole entry): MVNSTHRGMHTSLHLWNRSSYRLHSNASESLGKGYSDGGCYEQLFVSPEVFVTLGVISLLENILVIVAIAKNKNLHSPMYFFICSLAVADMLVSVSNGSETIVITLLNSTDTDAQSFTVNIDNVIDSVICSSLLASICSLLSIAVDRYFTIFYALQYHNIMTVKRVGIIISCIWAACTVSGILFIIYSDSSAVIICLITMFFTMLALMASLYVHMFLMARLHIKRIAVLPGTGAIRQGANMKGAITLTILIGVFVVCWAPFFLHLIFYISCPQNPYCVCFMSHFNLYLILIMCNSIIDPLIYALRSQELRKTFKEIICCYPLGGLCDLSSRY

`O=C(N[C@H](Cc1ccc(Cl)cc1)C(=O)N1CCC(c2ccccc2CN2CCCC2=O)CC1)C1CNC1` [WO030009847 Example 153, (R)-azetidine-3-carboxylic acid (1-(4-chloro-benzyl)-2-oxo-2-{4-[2-(2-oxo-pyrrolidin-1-ylmethyl)-phenyl]-piperidin-1-yl}-ethyl)-amide, reference compound] was tested, and the IC50 (hMC-4R [1]) was 40 nM, the IC50 (hMC-5R) was 3300 nM and the IC50 (hMC-3R) was 5200 nM. The EC50 (hMC-4R [2]) was 1020 nM and the “% activation” value (hMC-4R [2]) was 107%.
For `CS(=O)(=O)Nc1ccccc1N1CCN(C(=O)[C@@H](Cc2ccc(Cl)cc2)NC(=O)[C@H]2Cc3ccccc3CN2)CC1` [WO030009850 Example 1, (R,R)-1,2,3,4-tetrahydro-isoquinoline-3-carboxylic acid {1-(4-chloro-benzyl)-2-[4-(2-methanesulfonylamino-phenyl)-piperazin-1-yl]-2-oxo-ethyl}-amide, reference compound], the IC50 (hMC-4R [1]) was 500 nM, the EC50 (hMC-4R [2]) was 3740 nM and the “% activation” value (hMC-4R [2]) was 96%.
`O=C(N[C@H](Cc1ccc(Cl)cc1)C(=O)N1CCN(c2ccccc2CN2CCCC2=O)CC1)[C@H]1Cc2ccccc2CN1` [Example 3] was tested, and the IC50 (hMC-4R [1]) was 29 nM, the IC50 (hMC-5R) was 1300 nM and the “Binding Activity hMC-3R, % @10 uM” value (hMC-3R) was 41%@10 uM. For the same compound, the EC50 (hMC-4R [2]) was 260 nM, the “% activation” value (hMC-4R [2]) was 109% and the “fold improvement of functional activity” value (hMC-4R [2]) was “more than 14 fold”. For the same compound, the “fold better functional activity” value (hMC-4R [2]) was 11 fold.
In the case of `O=C(N[C@H](Cc1ccc(Cl)cc1)C(=O)N1CCC(c2ccccc2CN2CCCC2=O)CC1)[C@H]1Cc2ccccc2CN1` [Example 1], the IC50 (hMC-4R [1]) is reported as 17 nM, the IC50 (hMC-5R) is reported as 807 nM and the IC50 (hMC-3R) is reported as 7200 nM. The EC50 (hMC-4R [2]) was 60 nM and the “% activation” value (hMC-4R [2]) was 112%.
With `NC1c2ccccc2CCC1C(=O)N[C@H](Cc1ccc(Cl)cc1)C(=O)N1CCC(c2ccccc2CN2CCCC2=O)CC1` (single isomer, unassigned) [Example 2A] the IC50 (hMC-4R [1]) was 17 nM, the EC50 (hMC-4R [2]) was 101 nM and the “% activation” value (hMC-4R [2]) was 86%.
In the case of `NC1c2ccccc2CCC1C(=O)N[C@H](Cc1ccc(Cl)cc1)C(=O)N1CCN(c2ccccc2CN2CCCC2=O)CC1` (single isomer, unassigned) [Example 4B], the IC50 (hMC-4R [1]) is reported as 21 nM, the IC50 (hMC-5R) is reported as 1800 nM and the “Binding Activity hMC-3R, % @10 uM” value (hMC-3R) is reported as 47%@10 uM. For the same compound, the EC50 (hMC-4R [2]) was 180 nM, the “% activation” value (hMC-4R [2]) was 91% and the “fold improvement of functional activity” value (hMC-4R [2]) was over 21 fold. For the same compound, the “fold better functional activity” value (hMC-4R [2]) was 16 fold.
In the case of `CS(=O)(=O)Nc1ccccc1N1CCN(C(=O)[C@@H](Cc2ccc(Cl)cc2)NC(=O)C2CNC2)CC1` [WO030009850 Example 34, (R)-azetidine-3-carboxylic acid {1-(4-chloro-benzyl)-2-[4-(2-methanesulfonylamino-phenyl)-piperazin-1-yl]-2-oxo-ethyl}-amide, reference compound], the IC50 (hMC-4R [1]) is reported as 2900 nM and the “Functional Activity hMC-4R, % @10 µM” value (hMC-4R [2]; @10 µM) is reported as 11%@10 µM.
For `NC1c2ccccc2CCC1C(=O)N[C@H](Cc1ccc(Cl)cc1)C(=O)N1CCC(c2ccccc2CN2CCCC2=O)CC1` (single isomer, unassigned) [Example 2B], the IC50 (hMC-4R [1]) was 7 nM, the EC50 (hMC-4R [2]) was 29 nM and the “% activation” value (hMC-4R [2]) was 90%.
Compound `O=C(N[C@H](Cc1ccc(Cl)cc1)C(=O)N1CCN(c2ccccc2CN2CCCC2=O)CC1)C1CNC1` [WO030009850 Example 166, (R)-azetidine-3-carboxylic acid (1-(4-chloro-benzyl)-2-oxo-2-{4-[2-(2-oxo-pyrrolidin-1-ylmethyl)-phenyl]-piperazin-1-yl}-ethyl)-amide, reference compound] has an IC50 (hMC-4R [1]) of 110 nM, an IC50 (hMC-5R) of 6900 nM and an IC50 (hMC-3R) of 19200 nM. The EC50 (hMC-4R [2]) was 2850 nM and the “% activation” value (hMC-4R [2]) was 90%.

Source: patent EP1538159A1, “Substituted N-benzyl-lactam derivatives as melanocortin-4 receptor agonists” (Santhera Pharmaceuticals (Schweiz) GmbH, priority 2003, dated 2005)
